Measured values published in publication PMC9146984, “A Novel Proline-Rich Cathelicidin from the Alpaca Vicugna pacos with Potency to Combat Antibiotic-Resistant Bacteria: Mechanism of Action and the Functional Role of the C-Terminal Region” (Membranes, 2022).
Converted amounts (≈) assume the structure as drawn. Where two headings read alike, the source gives them in different places. Where a SMILES comes first, the peptide text is derived from it. Bridges are numbered along the chain shown (N, C = ends). [ ]: non-standard residue; d: D form. The star is where a group is joined. X1 = CC[C@H](C)CCCCC(=O)*; Dab = NCC[C@H](N)C(=O)O

What was measured:
E. coli MDR CI 1057 = conditions: Mueller-Hinton broth supplemented with 0.9% NaCl; for Minimum inhibitory concentration E.coli MDR 1057 14 days w/o AMP: after 14 passages without antimicrobial agents; for Minimum inhibitory concentration E.coli MDR 1057 0 days: before passages
Protocol: (§1) Bacterial test cultures were grown in the Mueller-Hinton broth (MH; Sigma, St. Louis, MO, USA) at 37 °C to mid-log phase and then diluted with the 2× MH medium supplemented with 1.8% NaCl or without salt so that to reach a final cell concentration of 10^6 CFU/mL. 50 µL of the obtained bacterial suspension were added to aliquots of 50 µL of the peptide solutions serially diluted with sterilized 0.1% bovine serum albumin (BSA) in 96-well flat-bottom polystyrene microplates (Eppendorf #0030730011, Hamburg, Germany). […] To verify MIC values, the respiratory activity of the bacteria was determined. Briefly, 20 µL of 0.1 mg/mL resazurin (a redox indicator; Sigma, St. Louis, MO, USA) was added to the wells after 24 h of incubation, and the plate was incubated for an additional two hours. The reduction of resazurin to resorufin was measured. […] The results were expressed as the median values determined based on at least three independent experiments performed in triplicate.
(§2) Resistance induction experiments were performed using the previously described method. Briefly, on day one, the overnight culture of wild-type bacteria was diluted with the 2× MH broth supplemented with 1.8% NaCl to reach a final cell concentration of 10^6 CFU/mL. 50 µL of the obtained bacterial suspension were added to aliquots of 50 µL of the peptide solutions serially diluted with the sterilized 0.1% BSA in 96-well flat-bottom polystyrene microplates. After incubation for 20 ± 2 h at 37 °C and 950 rpm, MICs were determined as described above. For each subsequent daily transfer, 2–4 μL of the inoculum taken from the first well containing a sub-inhibitory drug concentration were diluted with 2 mL of the fresh 2× MH broth supplemented with 1.8% NaCl. […] 14 repeated passages in the presence of antimicrobial agents were made for each bacterial strain during the experiment. Bacteria that grew at the highest concentration of AMPs on the final day were passaged a further 3 times on drug-free agar plates before determining the final MIC value.

[1] = system: VicBac[1–22]-resistant E. coli MDR 1057 strain; conditions: Mueller-Hinton broth supplemented with 0.9% NaCl; strain selected 14 days with VicBac[1-22]; cross-resistance
Protocol: as §1, §2

E. coli BW25113 ΔompF = format: cell-based, Escherichia coli; conditions: Mueller–Hinton broth, 24 h, 37 °C, median
Protocol: (§3) The reduction of resazurin to resorufin was measured.

E. coli BW25113 ΔmdtM = format: cell-based, Escherichia coli; conditions: Mueller–Hinton broth, 24 h, 37 °C, median
Protocol: as §3

E. coli BW25113 ΔsbmA = format: cell-based, Escherichia coli; conditions: Mueller–Hinton broth, 24 h, 37 °C, median
Protocol: as §3

E. coli BW25113 = format: cell-based, Escherichia coli; conditions: Mueller–Hinton broth, 24 h, 37 °C, median
Protocol: as §3

E. coli MDR 1057 = conditions: MH broth with 0.9% NaCl, 14 passages with the same agent (VicBac[1–22]: after 10 passages)
Protocol: Resistance induction experiments were performed using the previously described method. Briefly, on day one, the overnight culture of wild-type bacteria was diluted with the 2× MH broth supplemented with 1.8% NaCl to reach a final cell concentration of 10^6 CFU/mL. 50 µL of the obtained bacterial suspension were added to aliquots of 50 µL of the peptide solutions serially diluted with the sterilized 0.1% BSA in 96-well flat-bottom polystyrene microplates. After incubation for 20 ± 2 h at 37 °C and 950 rpm, MICs were determined as described above. For each subsequent daily transfer, 2–4 μL of the inoculum taken from the first well containing a sub-inhibitory drug concentration were diluted with 2 mL of the fresh 2× MH broth supplemented with 1.8% NaCl. […] Bacteria that grew at the highest concentration of AMPs on the final day were passaged a further 3 times on drug-free agar plates before determining the final MIC value.

SMILES | Minimum inhibitory concentration E.coli MDR 1057 14 days w/o AMP (E. coli MDR CI 1057) [µM] | Minimum inhibitory concentration E.coli MDR 1057 0 days (E. coli MDR CI 1057) [µM] | Minimum inhibitory concentration E.coli MDR 1057 14 days with VicBac [1-22] [1] [µM] | Minimum inhibitory concentration, E. coli strain ΔompF (E. coli BW25113 ΔompF; 0.9% NaCl: +) [µM] | Minimum inhibitory concentration, E. coli strain ΔompF (E. coli BW25113 ΔompF; 0.9% NaCl: −) [µM] | Minimum inhibitory concentration, E. coli strain ΔmdtM (E. coli BW25113 ΔmdtM; 0.9% NaCl: +) [µM] | Minimum inhibitory concentration, E. coli strain ΔmdtM (E. coli BW25113 ΔmdtM; 0.9% NaCl: −) [µM] | Minimum inhibitory concentration, E. coli strain ΔsbmA (E. coli BW25113 ΔsbmA; 0.9% NaCl: +) [µM] | Minimum inhibitory concentration, E. coli strain ΔsbmA (E. coli BW25113 ΔsbmA; 0.9% NaCl: −) [µM] | Minimum inhibitory concentration, E. coli strain BW25113 (E. coli BW25113; 0.9% NaCl: +) [µM] | Minimum inhibitory concentration, E. coli strain BW25113 (E. coli BW25113; 0.9% NaCl: −) [µM] | increase in MIC value after serial passage selection (E. coli MDR 1057) [fold]
CC[C@H](C)[C@H](NC(=O)[C@H](CCCNC(=N)N)NC(=O)[C@@H](N)CCCNC(=N)N)C(=O)N[C@@H](CCCNC(=N)N)C(=O)N1CCC[C@H]1C(=O)N[C@@H](CCCNC(=N)N)C(=O)N1CCC[C@H]1C(=O)N1CCC[C@H]1C(=O)N[C@@H](CCCNC(=N)N)C(=O)N[C@@H](CC(C)C)C(=O)N1CCC[C@H]1C(=O)N[C@@H](CCCNC(=N)N)C(=O)N1CCC[C@H]1C(=O)N[C@@H](CCCNC(=N)N)C(=O)N1CCC[C@H]1C(=O)N[C@@H](CCCNC(=N)N)C(=O)N1CCC[C@H]1C(=O)N[C@@H](CC(C)C)C(=O)N1CCC[C@H]1C(=O)N[C@@H](Cc1ccccc1)C(=O)N1CCC[C@H]1C(=O)N[C@@H](CCCNC(=N)N)C(=O)O [Bac7[1-22], reference compound] (H-RRIRPRPPRLPRPRPRPLPFPR-OH) | 1 (≈ 2.78 µg/mL) | 1 (≈ 2.78 µg/mL) | > 128 | 32 (≈ 89.1 µg/mL) | 2 (≈ 5.57 µg/mL) | 1 (≈ 2.78 µg/mL) | 4 (≈ 11.1 µg/mL) | 32 (≈ 89.1 µg/mL) | 1 (≈ 2.78 µg/mL) | – | – | –
CC[C@H](C)[C@H](NC(=O)[C@H](CCCCN)NC(=O)[C@H](CCC(=O)O)NC(=O)[C@H](CCCCN)NC(=O)[C@H](CO)NC(=O)[C@H](CCCCN)NC(=O)[C@H](CCCNC(=N)N)NC(=O)[C@H](Cc1ccccc1)NC(=O)[C@H](Cc1ccccc1)NC(=O)[C@H](CC(=O)O)NC(=O)CNC(=O)[C@H](CC(C)C)NC(=O)[C@@H](N)CC(C)C)C(=O)NCC(=O)N[C@@H](CCCCN)C(=O)N[C@@H](CCC(=O)O)C(=O)N[C@@H](Cc1ccccc1)C(=O)N[C@@H](CCCCN)C(=O)N[C@@H](CCCNC(=N)N)C(=O)N[C@H](C(=O)N[C@H](C(=O)N[C@@H](CCC(N)=O)C(=O)N[C@@H](CCCNC(=N)N)C(=O)N[C@H](C(=O)N[C@@H](CCCCN)C(=O)N[C@@H](CC(=O)O)C(=O)N[C@@H](Cc1ccccc1)C(=O)N[C@@H](CC(C)C)C(=O)N[C@@H](CCCNC(=N)N)C(=O)N[C@@H](CC(N)=O)C(=O)N[C@@H](CC(C)C)C(=O)N[C@H](C(=O)N1CCC[C@H]1C(=O)N[C@@H](CCCNC(=N)N)C(=O)N[C@H](C(=O)N[C@@H](CCC(=O)O)C(=O)N[C@@H](CO)C(=O)O)[C@@H](C)O)C(C)C)[C@@H](C)CC)C(C)C)[C@@H](C)CC [LL-37, reference compound] | 4 (≈ 18 µg/mL) | 4 (≈ 18 µg/mL) | 4 | 2 (≈ 8.99 µg/mL) | 4 (≈ 18 µg/mL) | 4 (≈ 18 µg/mL) | 4 (≈ 18 µg/mL) | 2 (≈ 8.99 µg/mL) | 4 (≈ 18 µg/mL) | 2 (≈ 8.99 µg/mL) | 4 (≈ 18 µg/mL) | 2
CC(C)C[C@H](NC(=O)[C@H](CCCNC(=N)N)NC(=O)[C@@H]1CCCN1C(=O)[C@@H]1CCCN1C(=O)[C@H](Cc1ccccc1)NC(=O)[C@H](Cc1ccccc1)NC(=O)[C@@H]1CCCN1C(=O)[C@@H]1CCCN1C(=O)[C@@H]1CCCN1C(=O)[C@H](CCCNC(=N)N)NC(=O)[C@@H]1CCCN1C(=O)[C@H](CCCNC(=N)N)NC(=O)[C@@H]1CCCN1C(=O)[C@H](CC(C)C)NC(=O)[C@H](Cc1ccc(O)cc1)NC(=O)[C@@H]1CCCN1C(=O)[C@@H]1CCCN1C(=O)[C@H](CCCNC(=N)N)NC(=O)[C@@H]1CCCN1C(=O)[C@H](CCCNC(=N)N)NC(=O)[C@H](CCCNC(=N)N)NC(=O)[C@@H](N)CCCNC(=N)N)C(=O)O [PR-39[1-22]] (H-RRRPRPPYLPRPRPPPFFPPRL-OH; N-terminus and C-terminus assumed) | 2 (≈ 5.53 µg/mL) | 2 (≈ 5.53 µg/mL) | > 128 | – | – | – | – | – | – | – | – | –
CC[C@H](C)CCCCC(=O)N[C@@H](CCN)C(=O)N[C@H](C(=O)N[C@@H](CCN)C(=O)N[C@H]1CCNC(=O)[C@H]([C@@H](C)O)NC(=O)[C@H](CCN)NC(=O)[C@H](CCN)NC(=O)[C@H](CC(C)C)NC(=O)[C@@H](Cc2ccccc2)NC(=O)[C@H](CCN)NC1=O)[C@@H](C)O [Polymyxin B, polymyxin B] (X1-[Dab]T[Dab][Dab][Dab][dF]L[Dab][Dab]T; lactam 4-C (inferred); N-terminus assumed) | 0.125 (≈ 0.15 µg/mL) | 0.125 (≈ 0.15 µg/mL) | 1 | – | – | – | – | – | – | – | – | 128
CC[C@H](C)[C@H](NC(=O)[C@H](CCCNC(=N)N)NC(=O)[C@@H](N)CCCNC(=N)N)C(=O)N[C@@H](CCCNC(=N)N)C(=O)N[C@@H](CCCNC(=N)N)C(=O)N1CCC[C@H]1C(=O)N[C@@H](CCCNC(=N)N)C(=O)N[C@@H](CC(C)C)C(=O)N1CCC[C@H]1C(=O)N[C@@H](CCCNC(=N)N)C(=O)N1CCC[C@H]1C(=O)N[C@@H](CCCNC(=N)N)C(=O)N[C@H](C(=O)N1CCC[C@H]1C(=O)O)C(C)C [VicBac[1-14]] (H-RRIRRPRLPRPRVP-OH; N-terminus and C-terminus assumed) | – | – | – | > 64 | 64 (≈ 117 µg/mL) | > 64 | 32 (≈ 58.4 µg/mL) | > 64 | 64 (≈ 117 µg/mL) | – | – | –
CC[C@H](C)[C@H](NC(=O)[C@H](CCCNC(=N)N)NC(=O)[C@@H](N)CCCNC(=N)N)C(=O)N[C@@H](CCCNC(=N)N)C(=O)N[C@@H](CCCNC(=N)N)C(=O)N1CCC[C@H]1C(=O)N[C@@H](CCCNC(=N)N)C(=O)N[C@@H](CC(C)C)C(=O)N1CCC[C@H]1C(=O)N[C@@H](CCCNC(=N)N)C(=O)N1CCC[C@H]1C(=O)N[C@@H](CCCNC(=N)N)C(=O)N[C@H](C(=O)N1CCC[C@H]1C(=O)N[C@@H](CCCNC(=N)N)C(=O)N1CCC[C@H]1C(=O)N[C@@H](CCCNC(=N)N)C(=O)N[C@H](C(=O)N1CCC[C@H]1C(=O)N1CCC[C@H]1C(=O)O)[C@@H](C)CC)C(C)C [VicBac[1-20]] (H-RRIRRPRLPRPRVPRPRIPP-OH; N-terminus and C-terminus assumed) | – | – | – | 64 (≈ 163 µg/mL) | 16 (≈ 40.7 µg/mL) | 4 (≈ 10.2 µg/mL) | 8 (≈ 20.3 µg/mL) | > 64 | 8 (≈ 20.3 µg/mL) | – | – | –
